Results: ChEMBL document CHEMBL1201862, “PubChem BioAssay data set” (2004)
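Growth conditions: 96-well plates. Treatment: test compound, 48 hours, 5 concentrations. Analysis: linear interpolation between bracketing concentrations; unreached endpoints set to highest concentration. GI50 is the concentration that inhibits growth by half.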 Calls of active or inactive are those of the source. Cut-off read from the data, not from the text of the source: active = GI50 up to about 1.1 µM and inactive = higher.

Key:
Test in all cases: NCI-60 cell line screen, 48 h
[1] = system: EKVX
[2] = system: MDA-MB-231
[3] = system: NCI-H226
[4] = system: SK-MEL-28
[5] = system: SF-539
[6] = system: HL-60
[7] = system: MDA-MB-435
[8] = system: HT-29
[9] = system: SN12C
[10] = system: UO-31
[11] = system: A498
[12] = system: KM12
[13] = system: OVCAR-8
[14] = system: ACHN
[15] = system: SNB-75
[16] = system: TK-10
[17] = system: HCT-116
[18] = system: PC-3
[19] = system: SF-295
[20] = system: SNB-19

With `C[C@]12CC[C@H]3[C@@H](CCC4=C[C@@H](OC5OCC(OC6OC(CO)C(O)C(O)C6O)C(O)C5O)CC[C@@]43C=O)[C@@]1(O)CCC2C1=CC(=O)OC1` (stereo not given in full) the GI50 [1] was 0.441 µM (active), the GI50 [2] was 3.02 µM (inactive) and the GI50 [3] was 2.15 µM (inactive). The GI50 [4] was 2.57 µM (inactive), the GI50 [5] was 0.391 µM (active) and the GI50 [6] was 0.244 µM (active). The GI50 [7] was 0.843 µM (active), the GI50 [8] was 0.832 µM (active) and the GI50 [9] was 0.364 µM (active). For the same compound, the GI50 [10] was 0.561 µM (active), the GI50 [11] was 0.755 µM (active) and the GI50 [12] was 2.71 µM (inactive). For the same compound, the GI50 [13] was 0.931 µM (active), the GI50 [14] was 0.137 µM (active) and the GI50 [15] was 1.4 µM (inactive). The GI50 [16] was 0.681 µM (active), the GI50 [17] was 0.322 µM (active) and the GI50 [18] was 0.631 µM (active). For the same compound, the GI50 [19] was 0.638 µM (active) and the GI50 [20] was 3.11 µM (inactive).
`COC(=O)C1(Cc2ccccc2)Cc2ccc3c(c2C1=O)CCC3` (stereo not given) was tested, and the GI50 [1] was 13.1 µM (inactive), the GI50 [2] was 33.4 µM (inactive) and the GI50 [3] was > 55.6 µM (inactive). For the same compound, the GI50 [4] was > 70.6 µM (inactive), the GI50 [5] was > 48.9 µM (inactive) and the GI50 [6] was 20.3 µM (inactive). For the same compound, the GI50 [7] was 24.9 µM (inactive), the GI50 [8] was 29 µM (inactive) and the GI50 [9] was 44.4 µM (inactive). For the same compound, the GI50 [10] was 18 µM (inactive), the GI50 [11] was 35.4 µM (inactive) and the GI50 [12] was 31.8 µM (inactive). For the same compound, the GI50 [13] was 59.6 µM (inactive), the GI50 [14] was 51.4 µM (inactive) and the GI50 [15] was 22.6 µM (inactive). The GI50 [16] was > 47.5 µM (inactive), the GI50 [17] was 30.5 µM (inactive) and the GI50 [18] was 26.1 µM (inactive). The GI50 [19] was > 46.2 µM (inactive) and the GI50 [20] was 55.2 µM (inactive).
For `CCCc1cc(-c2ccc(-c3cc(CCC)c(C=O)[nH]3)s2)[nH]c1C=O`, the GI50 [1] was > 100 µM (inactive), the GI50 [2] was > 100 µM (inactive) and the GI50 [3] was > 100 µM (inactive). For the same compound, the GI50 [4] was 63 µM (inactive), the GI50 [5] was > 100 µM (inactive) and the GI50 [6] was 4.3 µM (inactive). The GI50 [7] was 15.5 µM (inactive), the GI50 [8] was 2.18 µM (inactive) and the GI50 [9] was > 69.2 µM (inactive). For the same compound, the GI50 [10] was 22.6 µM (inactive), the GI50 [11] was > 69.5 µM (inactive) and the GI50 [12] was > 27.9 µM (inactive). The GI50 [13] was > 49.1 µM (inactive), the GI50 [14] was > 26.7 µM (inactive) and the GI50 [15] was > 100 µM (inactive). For the same compound, the GI50 [16] was > 100 µM (inactive), the GI50 [17] was 21.8 µM (inactive) and the GI50 [18] was 26.5 µM (inactive). For the same compound, the GI50 [19] was 11.9 µM (inactive) and the GI50 [20] was > 100 µM (inactive).
For `O=C(O)Cn1ccnc1[N+](=O)[O-]`, the GI50 [1] was > 100 µM (inactive), the GI50 [2] was > 100 µM (inactive) and the GI50 [3] was > 100 µM (inactive). The GI50 [4] was > 100 µM (inactive), the GI50 [5] was > 100 µM (inactive) and the GI50 [6] was > 100 µM (inactive). For the same compound, the GI50 [7] was > 100 µM (inactive), the GI50 [8] was > 100 µM (inactive) and the GI50 [9] was > 100 µM (inactive). The GI50 [10] was > 100 µM (inactive), the GI50 [11] was > 100 µM (inactive) and the GI50 [12] was > 100 µM (inactive). The GI50 [13] was > 100 µM (inactive), the GI50 [14] was > 100 µM (inactive) and the GI50 [15] was > 100 µM (inactive). For the same compound, the GI50 [16] was > 100 µM (inactive), the GI50 [17] was > 100 µM (inactive) and the GI50 [18] was > 100 µM (inactive). For the same compound, the GI50 [19] was > 100 µM (inactive) and the GI50 [20] was > 100 µM (inactive).
In the case of `C[C@H](CCC(=O)O)[C@H]1CC[C@H]2[C@@H]3[C@H](O)C[C@@H]4C[C@H](O)CC[C@]4(C)[C@H]3C[C@H](O)[C@]12C`, the GI50 [1] was > 100 µM (inactive), the GI50 [2] was > 100 µM (inactive) and the GI50 [3] was > 100 µM (inactive). The GI50 [4] was > 100 µM (inactive), the GI50 [5] was > 100 µM (inactive) and the GI50 [6] was > 100 µM (inactive). The GI50 [7] was > 100 µM (inactive), the GI50 [8] was > 100 µM (inactive) and the GI50 [9] was > 100 µM (inactive). For the same compound, the GI50 [10] was > 100 µM (inactive), the GI50 [11] was > 100 µM (inactive) and the GI50 [12] was > 100 µM (inactive). For the same compound, the GI50 [13] was > 100 µM (inactive), the GI50 [14] was > 100 µM (inactive) and the GI50 [15] was > 100 µM (inactive). The GI50 [16] was > 100 µM (inactive), the GI50 [17] was > 100 µM (inactive) and the GI50 [18] was > 100 µM (inactive). For the same compound, the GI50 [19] was > 100 µM (inactive) and the GI50 [20] was > 100 µM (inactive).
With `COc1ccc2c3c([nH]c2c1)CCN(CCCC(=O)c1ccc(F)cc1)C3` the GI50 [1] was 12.8 µM (inactive), the GI50 [2] was 15.8 µM (inactive) and the GI50 [3] was 16.5 µM (inactive). For the same compound, the GI50 [4] was 15.3 µM (inactive), the GI50 [5] was 9.89 µM (inactive) and the GI50 [6] was 15 µM (inactive). The GI50 [7] was 17.1 µM (inactive), the GI50 [8] was 4.91 µM (inactive) and the GI50 [9] was 15.9 µM (inactive). For the same compound, the GI50 [10] was 14 µM (inactive), the GI50 [11] was 16 µM (inactive) and the GI50 [12] was 19.7 µM (inactive). For the same compound, the GI50 [13] was 15.6 µM (inactive), the GI50 [14] was 17.1 µM (inactive) and the GI50 [15] was 12.2 µM (inactive). The GI50 [16] was 15.5 µM (inactive), the GI50 [17] was 12.2 µM (inactive) and the GI50 [18] was 12.6 µM (inactive). For the same compound, the GI50 [19] was 15.7 µM (inactive) and the GI50 [20] was 14.8 µM (inactive).
With `S=C1Cc2cc3ccccc3nc2-c2ccccc2N1` the GI50 [1] was 38 µM (inactive), the GI50 [2] was 10.4 µM (inactive) and the GI50 [3] was 16.1 µM (inactive). For the same compound, the GI50 [4] was 27.5 µM (inactive), the GI50 [5] was 12.6 µM (inactive) and the GI50 [6] was > 100 µM (inactive). For the same compound, the GI50 [7] was 29.7 µM (inactive), the GI50 [8] was > 47.2 µM (inactive) and the GI50 [9] was 16.7 µM (inactive). For the same compound, the GI50 [10] was 9.06 µM (inactive), the GI50 [11] was 6.31 µM (inactive) and the GI50 [12] was 19.3 µM (inactive). For the same compound, the GI50 [13] was 11.9 µM (inactive), the GI50 [14] was 24 µM (inactive) and the GI50 [15] was 7.24 µM (inactive). The GI50 [16] was 24.3 µM (inactive), the GI50 [17] was 13.6 µM (inactive) and the GI50 [18] was 36 µM (inactive). The GI50 [19] was 22.7 µM (inactive) and the GI50 [20] was > 29.3 µM (inactive).
In the case of `O=C(Cc1ccccc1)NCCc1ccc(O)c(O)c1`, the GI50 [1] was > 100 µM (inactive), the GI50 [2] was 37.2 µM (inactive) and the GI50 [3] was > 100 µM (inactive). For the same compound, the GI50 [4] was > 100 µM (inactive), the GI50 [5] was > 100 µM (inactive) and the GI50 [6] was 13.8 µM (inactive). For the same compound, the GI50 [7] was 17.9 µM (inactive), the GI50 [8] was > 100 µM (inactive) and the GI50 [9] was 95.9 µM (inactive). The GI50 [10] was 41.2 µM (inactive), the GI50 [11] was > 100 µM (inactive) and the GI50 [12] was > 100 µM (inactive). The GI50 [13] was > 100 µM (inactive), the GI50 [14] was 64.4 µM (inactive) and the GI50 [15] was > 100 µM (inactive). For the same compound, the GI50 [16] was > 100 µM (inactive), the GI50 [17] was > 100 µM (inactive) and the GI50 [18] was > 100 µM (inactive). The GI50 [19] was > 100 µM (inactive) and the GI50 [20] was > 100 µM (inactive).
For `Cc1cc(=O)oc2cc(OC(=O)Nc3ccccc3)ccc12`, the GI50 [1] was > 100 µM (inactive), the GI50 [2] was > 100 µM (inactive) and the GI50 [3] was 73.1 µM (inactive). For the same compound, the GI50 [4] was > 100 µM (inactive), the GI50 [5] was > 100 µM (inactive) and the GI50 [6] was 20.6 µM (inactive). The GI50 [7] was > 100 µM (inactive), the GI50 [8] was > 100 µM (inactive) and the GI50 [9] was 74.6 µM (inactive). The GI50 [10] was 40.4 µM (inactive), the GI50 [11] was 64.4 µM (inactive) and the GI50 [12] was 32.4 µM (inactive). For the same compound, the GI50 [13] was 53.3 µM (inactive), the GI50 [14] was 74 µM (inactive) and the GI50 [15] was > 100 µM (inactive). For the same compound, the GI50 [16] was > 100 µM (inactive), the GI50 [17] was 47.8 µM (inactive) and the GI50 [18] was 48.8 µM (inactive). For the same compound, the GI50 [19] was > 100 µM (inactive) and the GI50 [20] was > 100 µM (inactive).
For `O=C(Sc1c(-c2ccccc2)c(=O)n(-c2ccccc2)c(=S)n1-c1ccccc1)c1ccco1`, the GI50 [1] was > 100 µM (inactive), the GI50 [2] was > 100 µM (inactive) and the GI50 [3] was > 100 µM (inactive). For the same compound, the GI50 [4] was > 100 µM (inactive), the GI50 [5] was > 100 µM (inactive) and the GI50 [6] was 21.5 µM (inactive). The GI50 [7] was > 100 µM (inactive), the GI50 [8] was > 100 µM (inactive) and the GI50 [9] was > 100 µM (inactive). For the same compound, the GI50 [10] was > 100 µM (inactive), the GI50 [11] was > 100 µM (inactive) and the GI50 [12] was > 100 µM (inactive). The GI50 [13] was > 100 µM (inactive), the GI50 [14] was > 100 µM (inactive) and the GI50 [15] was 72.1 µM (inactive). For the same compound, the GI50 [16] was > 100 µM (inactive), the GI50 [17] was > 100 µM (inactive) and the GI50 [18] was > 100 µM (inactive). For the same compound, the GI50 [19] was > 100 µM (inactive) and the GI50 [20] was > 100 µM (inactive).
